Some test systems named below: HL-60(TB) leukemia; SNB-19 CNS; UACC-62 melanoma; ACHN renal; K-562 leukemia; TK-10 renal; HCC-2998 colon; HCT-15 colon; NCI-H522 lung; UO-31 renal.
Holding throughout (test): inhibition of tumour cell growth, NCI panel, 48 h

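The compound was tested at five concentrations on cells cultured in 96-well plates, with a 48-hour exposure period. TGI denotes the concentration required for complete inhibition of growth.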 Some results are limits rather than exact numbers.

On to `Cc1c2cccc-2ccc2c1[nH]c1ccc(Br)cc12`, for which the TGI in the experiment on HL-60(TB) leukemia was over 100 µM; with SNB-19 CNS, 23.8 µM; with UACC-62 melanoma, 27.1 µM; with ACHN renal, 24.4 µM; in the experiment on K-562 leukemia, 11.8 µM; with TK-10 renal, 32.2 µM. Moreover, the TGI with HCC-2998 colon was 49.3 µM; in the experiment with HCT-15 colon, 14 µM; with NCI-H522 lung, 6.29 µM; in the experiment with UO-31 renal it was 18.6 µM.

The record behind these values is PubChem BioAssay (NCI).
